Laboratory results published in US20060035847A1, “Glucopyranosyloxyprazole derivatives and use thereof in medicines” (KISSEI PHARMACEUTICAL CO., LTD., priority 2000, published 2006).

Biological target: T1, human SGLT2 (Homo sapiens, UniProt P31639, I433V)
T1 construct: expressed in transfected cells; host or cells: COS-7 cells (RIKEN CELL BANK RCB0539), transient, electroporation
T1 sequence (P31639 1-672 I433V): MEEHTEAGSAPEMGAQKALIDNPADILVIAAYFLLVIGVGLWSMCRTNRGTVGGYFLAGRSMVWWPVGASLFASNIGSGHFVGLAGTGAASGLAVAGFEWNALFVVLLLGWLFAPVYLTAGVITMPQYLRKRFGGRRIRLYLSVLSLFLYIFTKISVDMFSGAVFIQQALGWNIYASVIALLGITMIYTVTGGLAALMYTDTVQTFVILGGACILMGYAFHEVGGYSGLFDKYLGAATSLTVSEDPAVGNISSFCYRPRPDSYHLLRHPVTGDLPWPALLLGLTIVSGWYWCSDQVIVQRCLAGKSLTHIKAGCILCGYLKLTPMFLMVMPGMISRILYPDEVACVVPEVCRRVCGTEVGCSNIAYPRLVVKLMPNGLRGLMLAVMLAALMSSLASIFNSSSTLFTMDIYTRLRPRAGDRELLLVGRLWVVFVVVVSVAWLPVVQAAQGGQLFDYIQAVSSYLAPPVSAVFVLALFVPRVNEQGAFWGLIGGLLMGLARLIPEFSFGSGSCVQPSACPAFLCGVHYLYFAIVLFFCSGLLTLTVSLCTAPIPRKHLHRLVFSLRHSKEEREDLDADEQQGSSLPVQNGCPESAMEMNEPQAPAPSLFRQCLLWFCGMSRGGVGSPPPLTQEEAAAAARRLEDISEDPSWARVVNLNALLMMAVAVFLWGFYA
Test: Assay for inhibitory effect on human SGLT2 activity (methyl-α-D-glucopyranoside uptake in COS-7 cells transiently expressing human SGLT2)
Type: cell-based
Details: inhibition of methyl-α-D-glucopyranoside uptake, COS-7 cells expressing human SGLT2, 37° C., 2 hours
Procedure: Assay for Inhibitory Effect on Human SGLT2 Activity
1) Construction of the Plasmid Vector Expressing Human SGLT2
Preparation of the cDNA library for PCR amplification was performed by reverse transcription of a total RNA deprived from human kidney (Ori gene) with oligo dT as the primer, using SUPERSCRIPT Preamplification System (Gibco-BRL: LIFE TECHNOLOGIES). The DNA fragment coding for human SGLT2 was amplified by the PCR reaction, in which the human kidney cDNA library described above was used as the template and the following oligo nucleotides 0702F and 0712R, presented as sequence number 1 and 2 respectively, were used as the primers. The amplified DNA fragment was ligated into pCR-Blunt (Invitrogen), a vector for cloning, according to standard method of the kit. The Escherichia coli HB101 was transformed according to usual method and then selection of the transformants was performed on the LB agar medium containing 50 μg/mL of kanamycin. After plasmid DNA was extracted and purified from the one of the transformants, amplifying of the DNA fragment coding for human SGLT2 was performed by the PCR reaction, in which the following oligo nucleotides 0714F and 0715R, presented as sequence number 3 and 4 respectively, were used as the primers. The amplified DNA fragment was digested with restriction enzymes, Xho I and Hind III, and then purified with Wizard Purification System (Promega). This purified DNA fragment was inserted at into the corresponding restriction sites of pcDNA3.1 (−) Myc/His—B (Invitrogen), a vector for expressing of fusion protein. The Escherichia coli HB101 was transformed according to usual method and then selection of the transformant was performed on the LB agar medium containing 100 μg/mL of ampicillin. After plasmid DNA was extracted and purified from this transformant, the base sequence of the DNA fragment inserted at the multi-cloning sites of the vector pcDNA3.1 (−) Myc/His—B was analyzed. […] Sequentially, a clone in which valine is substituted for isoleucine-433 was obtained. This plasmid vector expressing human SGLT2 in which the peptide presented as sequence number 5 is fused to the carboxyl terminal alanine residue was designated KL29.
2) Preparation of the Cells Expressing Transiently Human SGLT2
KL29, the plasmid coding human SGLT2, was transfected into COS-7 cells (RIKEN CELL BANK RCB0539) by electroporation. Electroporation was performed with GENE PULSER II (Bio-Rad Laboratories) under the condition: 0.290 kV, 975 μF, 2×10^6 cells of COS-7 cell and 20 μg of KL29 in 500 μL of OPTI-MEM I medium (Gibco-BRL: LIFE TECHNOLOGIES) in the 0.4 cm type cuvette. After the gene transfer, the cells were harvested by centrifugation and resuspended with OPTI-MEM I medium (1 mL/cuvette). To each well in 96-wells plate, 125 μL of this cell suspension was added. After overnight culture at 37° C. under 5% CO2, 125 μL of DMEM medium which is containing 10% of fetal bovine serum (Sanko Jyunyaku), […] sodium penicillin G (Gibco-BRL: LIFE TECHNOLOGIES), 100 μg/mL streptomycin sulfate (Gibco-BRL: LIFE TECHNOLOGIES) was added to each well. These cells were cultured until the next day and then they were used for the measurement of the inhibitory activity against the uptake of methyl-α-D-glucopyranoside.
3) Measurement of the Inhibitory Activity Against the Uptake of methyl-α-D-glucopyranoside
After a test compounds was dissolved in dimethyl sulfoxide and diluted with the uptake buffer (a pH 7.4 buffer containing 140 mM sodium chloride, 2 mM potassium chloride, 1 mM calcium chloride, 1 mM magnesium chloride, 5 mM methyl-α-D-glucopyranoside, 10 mM 2-[4-(2-hydroxyethyl)-1-piperazinyl]ethane sulfonic acid and 5 mM tris(hydroxymethyl)aminomethane), each diluent was used as test sample for measurement of the inhibitory activity. […]

Row | Structure (SMILES) | IC50 [nM]
1 | Cc1[nH]nc(O[C@@H]2O[C@H](CO)[C@@H](O)[C@H](O)[C@H]2O)c1Cc1ccc(OC(C)C)cc1 [Reference Example 37, 3-(β-D-Glucopyranosyloxy)-4-[(4-isopropoxyphenyl)methyl]-5-methyl-1H-pyrazole] | 181
2 | CCOc1ccc(Cc2c(O[C@@H]3O[C@H](CO)[C@@H](O)[C@H](O)[C@H]3O)n[nH]c2C)cc1 [Reference Example 41, 4-[(4-Ethoxyphenyl)methyl]-3-(β-D-glucopyranosyloxy)-5-methyl-1H-pyrazole] | 185
3 | Cc1c(Cc2ccc(OC(C)C)cc2)c(O[C@@H]2O[C@H](CO)[C@@H](O)[C@H](O)[C@H]2O)nn1C(C)C [Reference Example 72, 3-(β-D-Glucopyranosyloxy)-4-[(4-isopropoxyphenyl)methyl]-1-isopropyl-5-methylpyrazole] | 369
4 | COc1ccc(Cc2c(O[C@@H]3O[C@H](CO)[C@@H](O)[C@H](O)[C@H]3O)n[nH]c2C(F)(F)F)cc1 [Reference Example 50, 3-(β-D-Glucopyranosyloxy)-4-[(4-methoxyphenyl)methyl]-5-trifluoromethyl-1H-pyrazole] | 415
5 | COc1ccc(Cc2c(O[C@@H]3O[C@H](CO)[C@@H](O)[C@H](O)[C@H]3O)n[nH]c2C)cc1 [Reference Example 51, 3-(β-D-Glucopyranosyloxy)-4-[(4-methoxyphenyl)methyl]-5-methyl-1H-pyrazole] | 383
6 | CCCOc1ccc(Cc2c(O[C@@H]3O[C@H](CO)[C@@H](O)[C@H](O)[C@H]3O)n[nH]c2C)cc1 [Reference Example 40, 3-(β-D-Glucopyranosyloxy)-5-methyl-4-[(4-propoxyphenyl)-methyl]-1H-pyrazole] | 702
7 | CCCc1ccc(Cc2c(O[C@@H]3O[C@H](CO)[C@@H](O)[C@H](O)[C@H]3O)n[nH]c2C)cc1 [Reference Example 38, 3-(β-D-Glucopyranosyloxy)-5-methyl-4-[(4-propylphenyl)-methyl]-1H-pyrazole] | 441
8 | CSc1ccc(Cc2c(O[C@@H]3O[C@H](CO)[C@@H](O)[C@H](O)[C@H]3O)nn(C)c2C(F)(F)F)cc1 [Reference Example 54, 3-(β-D-Glucopyranosyloxy)-1-methyl-4-[(4-methylthiophenyl)-methyl]-5-trifluoromethylpyrazole] | 835
9 | CSc1ccc(Cc2c(O[C@@H]3O[C@H](CO)[C@@H](O)[C@H](O)[C@H]3O)n[nH]c2C(F)(F)F)cc1 [Reference Example 48, 3-(β-D-Glucopyranosyloxy)-4-[(4-methylthiophenyl)methyl]-5-trifluoromethyl-1H-pyrazole] | 679
10 | Cc1ccc(Cc2c(O[C@@H]3O[C@H](CO)[C@@H](O)[C@H](O)[C@H]3O)n[nH]c2C)cc1 [Reference Example 57, 3-(β-D-Glucopyranosyloxy)-5-methyl-4-[(4-methylphenyl)-methyl]-1H-pyrazole] | 280
11 | Cc1[nH]nc(O[C@@H]2O[C@H](CO)[C@@H](O)[C@H](O)[C@H]2O)c1Cc1ccc(C(C)C)cc1 [Reference Example 47, 3-(β-D-Glucopyranosyloxy)-4-[(4-isopropylphenyl)methyl]-5-methyl-1H-pyrazole] | 441
12 | CCc1ccc(Cc2c(O[C@@H]3O[C@H](CO)[C@@H](O)[C@H](O)[C@H]3O)n[nH]c2C)cc1 [Reference Example 58, 4-[(4-Ethylphenyl)methyl]-3-(β-D-glucopyranosyloxy)-5-methyl-1H-pyrazole] | 190
13 | CCc1ccc(Cc2c(O[C@@H]3O[C@H](CO)[C@@H](O)[C@H](O)[C@H]3O)n[nH]c2C(F)(F)F)cc1 [Reference Example 60, 4-[(4-Ethylphenyl)methyl]-3-(β-D-glucopyranosyloxy)-5-trifluoromethyl-1H-pyrazole] | 634
14 | CSc1ccc(Cc2c(O[C@@H]3O[C@H](CO)[C@@H](O)[C@H](O)[C@H]3O)n[nH]c2C)cc1 [Reference Example 45, 3-(β-D-Glucopyranosyloxy)-5-methyl-4-[(4-methylthiophenyl)-methyl]-1H-pyrazole] | 84
15 | CCc1[nH]nc(O[C@@H]2O[C@H](CO)[C@@H](O)[C@H](O)[C@H]2O)c1Cc1ccc(SC)cc1 [Reference Example 46, 5-Ethyl-3-(β-D-glucopyranosyloxy)-4-[(4-methylthiophenyl)-methyl]-1H-pyrazole] | 509
